Laboratory results as given in patent US7132287B2, “Method for neural stem cell differentiation using 5HT-1A agonists” (Psychiatric Genomics, Inc., priority 2001, dated 2006).
Where “and” joins values, the source holds several entries; their conditions need not be identical. Equal entries are not always repeated.

Legend:
cerebellar stem cells = experiment: Neuronal differentiation of cerebellar stem cells (TuJ1 positive cells); type: cell-based, rat; settings: FIG. 2, lane 5, serotonin 5 μM; untreated control less than 20%
Text: Isolation and quantitation of cerebellar stem cells. Neural stem cells were isolated from rat embryos (obtained from Taconic) at the 19th day of gestation (E19). The rats were sacrificed by inhalation of excess carbon dioxide. The abdomen of the rat was cleaned with 70% ethanol and the uterus was removed quickly and aseptically on the bench top. The uterus was placed in ice cold PBS (GIBCO Cat. # 20012-027) in a 200-ml beaker.
The cerebellar tissue was dissected under a microscope according to the following procedure and collected in a 15-ml tube containing HBSS on ice. The dissection should be completed in 1–2 hours (optimally) and the pH of the HBSS should remain neutral. First, the neck of the embryos was severed towards the bottom and the heads were collected in cold PBS. Next, the skin and scalp was removed from neck and head of the embryo. The brain, including the cerebral cortex, midbrain, cerebellum and some of the spinal cord, was removed by dissection under a microscope and transfered into a clean dish with fresh, cold PBS. The cerebellar region was dissected and cleaned of extraneous tissue, including removal of the meninges, and transferred into cold HBSS in a clean 15 ml tube.
The tube containing the cerebellar tissue was centrifuged at 1,000 RPM for 2 min at 15 C., followed by slow, careful aspiration of the HBSS supernatant (care should be taken to avoid aspirating tissue). (It is best to limit the centrifugation steps as much as possible.) About 1 to 3 ml of DMEM/F12/N2 medium (see below) was immediately added to the remaining tissue; the volume of medium depends on the quantity of the dissected tissue. The tissue was gently triturated about 8 to 10 times using a P-1000 Pipetteman until the tissue was dissociated (as evidenced by cloudy solution), then the tube was incubated in the hood for 5 minutes at room temperature to permit settlement of small particles of undissociated tissue. The supernatant was then transferred into a fresh tube, taking care to avoid the smaller particles of tissue that remained at the bottom of the tube.
Plating and expansion of cerebellar stem cells. The triturated cell suspension of E19 rat cerebellum was seeded into pre-coated 10 cm dishes at 2×10^6 cells per dish. This is denoted as the P0 culture (passage 0). The cells were grown in 5 ml of DMEM/F12/N2 supplemented with 25 mg/L insulin and 10 ng/ml bFGF at 37 C, 5% CO2 and 90% humidity.
Cells were fed daily with 10 ng/ml bFGF. The medium was changed one day after the cells were seeded, and thereafter every other day. On about day 4 of the culture, or when cells reached 70% confluence, the culture was passaged (see “Passage of cerebellar stem cells” below) and seeded into 10 cm dishes at an initial density of 2×10^6 cells per dish. This is denoted as the P1 culture (passage 1). The passaged cells at P1 were grown in DMEM/F12/N2 medium supplemented with 25 mg/L insulin and 10 ng/ml bFGF. The medium was changed every other day.
After two days of culture, some cells were passaged into a P2 culture, and some were seeded in 12-well tissue culture plates for experimental use. One ml of DMEM/F12/N2 medium was used per well of a 12-well plate at 2×10^4 cells per well. Experimental treatments were initiated the day after passage.
(§1) Drug treatments. Stem cells obtained as described above were treated with drugs and subjected to differentiation protocols in the second passage. Cells were plated at a density of 1×10^4 cells per well of a 12-well petridish (Falcon).
Drug treatments were started on the next day. […] The WAY 100635 antagonist compound was used simultaneously with buspirone or serotonin in the blocking experiments.

[1] = test system: cerebellar neural stem cells
Protocol: Cells were treated with the drugs as shown in the presence or absence of the 5HT 1A antagonist WAY 100635 (10 nM), or vasoactive intestinal peptide
Drug treatments were started on the next day. Optimal concentrations were as follows: bFGF: 10 ng/ml; BDNF (R&D Systems, Minneapolis, Minn.): 20 ng/ml; buspirone (Sigma): 100–1000 nM; or Serotonin (Sigma): 5–10 μM; buspirone or serotonin and the 5HT1A antagonist WAY100635 (Sigma): 10 nM. The WAY 100635 antagonist compound was used simultaneously with buspirone or serotonin in the blocking experiments. Positive and negative control cultures were those treated with BDNF and FGF alone, respectively.
Untreated cells were used as a negative control.

adult rat hippocampus = settings: Mahlberg et al., preliminary data; cited from earlier work
[2] = test system: cortical neural stem cells; experiment: Neuronal differentiation of cortical neural stem cells (β tubulin III / TuJ-1 immunofluorescence); type: cell-based, rat; settings: 6 days
Text: Isolation of cortical and striatal stem cells. Timed pregnant Sprague Dawley rats obtained from Taconic at embryonic age E14-E15 were sacrificed as described above and the uterus removed and placed in ice cold PBS in a 10 cm petridish. After rinsing the uterus in PBS, embryos were removed from the uterus, rinsed in PBS and collected in cold HBSS (buffered with HEPES and sodium bicarbonate) in a 10 cm petridish and placed on ice.
The cortex and striatum was dissected under a microscope and collected in a 15 ml tube of HBSS, on ice. Removal of meninges is not possible at this age, and no attempt was made to do so. If the dissected tissue was in large enough chunks and settle to the bottom of the tube, no centrifugation was performed. Alternatively, the tube was centrifuged at 1000 rpm for 5 minutes to pellet the tissue. Following centrifugation, the 15 ml tube containing the tissue was sprayed with 70% ethanol and taken into the sterile hood.
The HBSS was aspirated and replaced with 10 ml of DMEM/F12. The tissue was collected at the bottom of the tube by gravity or centrifugation, medium was aspirated, and 1 ml of DMEM/F12 was to the tissue. Cells were dissociated by trituration as described above, followed by addition of 5 ml of DMEM/F12 and a second round of trituration. […] The tubes were placed standing 5–10 minutes in the hood to allow larger particles and meninges to settle. While the meninges were settling, a cell count was made. 10 μl of the cell suspension is diluted with trypan blue and counted in a hemocytometer. Cells were counted in the four outer chambers with the larger squares, and cell count calculated assuming that the volume enclosed in each of the chambers was […].
Plating, expansion and passaging of cortical and striatal stem cells A generous amount of the triturated cell suspension was left in the original 15 ml tube to avoid fibroblast contamination in cultures. About 4–5 ml of the 6 ml of cells suspension was used for plating. Cells were plated at a concentration of approximately 1×10^6 per 10 cm dish. This culture is designated P0 (passage 0).
Following plating cells were expanded for about 3–4 days. The cultures were never permitted to reach more than 70% confluency. Cultures were then passaged as follows: 5 ml of HBSS was added to each 10 cm dish and the cells incubated at 37° C. for 15–45 minutes, or until sufficient numbers of the stem cells were rounded up. It is not expected that all cells in the culture will round up as there are several cell types in the culture at P0. The pH of the HBSS should be neutral at all times during this incubation. Cells were then removed from the dish by pipetting with a 5 ml pipette, or by scraping with a policeman, collected in a 15 or 50 ml conical tube, and centrifuged at 1000 g for 5 minutes. Cells were gently re-suspended in medium, counted, and plated at a density of about 1×10^6 per 10 cm dish.
as §1
Drug treatments were started on the next day. […] The WAY 100635 antagonist compound was used simultaneously with buspirone or serotonin in the blocking experiments. Positive and negative control cultures were those treated with BDNF and FGF alone, respectively.
Cells were treated with the designated concentrations of drugs or combinations thereof, daily, and were fed every alternate day with fresh medium. Experiments were maintained for about 6–10 days in most cases.

5HT1A receptor [3] = biological target: T1, 5HT1A receptor (Homo sapiens, UniProt P08908); settings: cited from earlier work
T1 sequence (P08908 1-422): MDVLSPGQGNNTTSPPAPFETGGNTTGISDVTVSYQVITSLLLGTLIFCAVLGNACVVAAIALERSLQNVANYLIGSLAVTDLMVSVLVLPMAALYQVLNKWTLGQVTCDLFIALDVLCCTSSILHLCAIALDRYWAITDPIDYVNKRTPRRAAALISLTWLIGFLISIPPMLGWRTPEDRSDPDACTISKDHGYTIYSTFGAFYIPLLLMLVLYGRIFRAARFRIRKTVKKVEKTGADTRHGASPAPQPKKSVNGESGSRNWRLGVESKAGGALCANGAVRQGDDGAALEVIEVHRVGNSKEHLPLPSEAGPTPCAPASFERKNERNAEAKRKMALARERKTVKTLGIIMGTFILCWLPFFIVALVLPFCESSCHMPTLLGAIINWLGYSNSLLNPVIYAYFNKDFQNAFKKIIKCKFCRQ

[4] = biological target: T2, 5-HT1A receptors over dopamine D2 receptors (Homo sapiens, UniProt P08908); settings: compared to buspirone; cited from earlier work
T2 sequence (P08908 1-422): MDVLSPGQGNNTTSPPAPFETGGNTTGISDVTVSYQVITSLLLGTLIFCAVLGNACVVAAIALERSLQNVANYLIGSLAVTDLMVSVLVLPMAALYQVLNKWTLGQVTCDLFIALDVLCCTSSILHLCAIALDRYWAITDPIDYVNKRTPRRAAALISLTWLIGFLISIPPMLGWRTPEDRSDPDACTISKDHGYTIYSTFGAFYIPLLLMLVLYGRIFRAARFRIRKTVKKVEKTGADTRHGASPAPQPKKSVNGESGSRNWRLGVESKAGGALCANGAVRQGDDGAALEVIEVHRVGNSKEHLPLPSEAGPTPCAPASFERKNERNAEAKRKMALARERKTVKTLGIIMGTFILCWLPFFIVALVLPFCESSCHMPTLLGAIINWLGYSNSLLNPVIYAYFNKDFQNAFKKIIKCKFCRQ

5HT1A receptor [5] = biological target: T1, 5HT1A receptor; settings: cited from earlier work; remark: listed apart in the source

For `NCCc1c[nH]c2ccc(O)cc12` [serotonin, 5-hydroxytryptamine], which differentiation of neurons (cerebellar stem cells) is on record?
Its differentiation of neurons is 60%.

For `COc1ccccc1N1CCN(CCN(C(=O)C2CCCCC2)c2ccccn2)CC1` [WAY100635, N-[2-[4-(2-Methoxyphenyl)-1-piperazinyl]ethyl]-N-2-pyridinylcyclohexanecarboxamide], which “effect of antagonist on buspirone-induced neuronal differentiation” value ([1]; WAY100635 10 nM added simultaneously with buspirone 500 nM, FIG. 2 lane 4) is on record?
The value was “inhibited neuronal differentiation”.

And the “effect of antagonist on serotonin-induced neuronal differentiation” value ([1]; WAY100635 10 nM added simultaneously with serotonin 5 μM, FIG. 2 lane 6)?
Its value is “inhibited neuronal differentiation”.

And the “effect of antagonist on vasoactive intestinal peptide-induced neuronal differentiation” value ([1]; WAY100635 10 nM added to VIP-treated cells, FIG. 2 lane 8)?
Its value is “did not prevent or inhibit neuronal differentiation”.

With `CNCCC(Oc1ccc(C(F)(F)F)cc1)c1ccccc1` (centres unmarked) [fluoxetine] as the molecule, how does the “neurogenesis in adult rat hippocampus” value (adult rat hippocampus) read?
Its value is “increases neurogenesis”.

What does the source list for “bFGF: recombinant human basic fibroblast growth factor (R&D Systems), mitogenic growth factor; negative control”?
Total No. of Cells ([2]; 10 ng/ml bFGF): 7330 and 10210; No. Fluorescent Cells ([2]; 10 ng/ml bFGF, TuJ-1 staining): 33 and 65

For `COc1ccc2[nH]cc(CCN(C)C)c2c1` [5-methoxy-N,N-dimethyltryptamine], which “affinity for the 5HT1A receptor” value (5HT1A receptor [3]) is on record?
The value was “high affinity”.

Which “selectivity for 5-HT1A receptors over dopamine D2 receptors” value [4] does the source give for `CC1(C)CC(=O)N(CCCCN2CCN(c3ncccn3)CC2)C(=O)C1` [gepirone] here?
Its value is “much greater selectivity”.

For `CCCN(CCC)[C@@H]1CCc2ccc3[nH]c(C#N)cc3c2C1` [U-92016A], which “intrinsic activity as 5-HT1A receptor agonist” value (5HT1A receptor [5]) is on record?
Its value is “exceptionally high degree of intrinsic activity”.

B1: BDNF: brain-derived neurotrophic factor (R&D Systems), a known neuronal differentiation factor; positive control (protein, UniProt P23560 19-247, looked up)
Neurotrophic factor BDNF …: APMKEANIRGQGGLAYPGVRTHGTLESVNGPKAGSRGLTSLADTFEHVIEELLDEDQKVRPNEENNKDADLYTSRVMLSSQVPLEPPLLFLLEEYKNYLDAANMSMRVRRHSDPARRGELSVCDSISEWVTAADKKTAVDMSGGTVTVLEKVPVSKGQLKQYFYETKCNPMGYTKEGCRGIDKRHWNSQCRTTQSYVRALTMDSKKRIGWRFIRIDTSCVCTLTIKRGR
With B1 as the molecule, how does the “Total No. of Cells” value ([2]; 20 ng/ml BDNF) read?
The value was 624 and 1006.
